Results: patent US20110110886A1, “SMALL MOLECULE INHIBITORS OF AUTOTAXIN AND METHODS OF USE” (Yale University, priority 2008, published 2011)

Experiments:
[1] = biological target: T1, ATX (recombinant full-length human ATX), lysoPLD activity (Homo sapiens, UniProt Q13822); assay: Steady-state ATX lysoPLD activity with fluorescent LPC analogue FS-3; type: biochemical; settings: for type of inhibition of ATX lysoPLD activity: substrate FS-3; for Ki: substrate FS-3, 37° C.
T1 construct: consistent with a mature, glycosylated form of the enzyme; TEV cleavage site (C); 9-His (C); 6-His (C); made in house; host or cells: High Five insect cells (baculovirus, p-DEST-8)
Description: Protein expression and purification: The full length human NPP2 gene (NCBI accession #BC034961) followed by a C-terminal TEV cleavage site and a 9-His and 6-His purification tag was cloned and transferred into a p-DEST-8 baculovirus shuttle vector (Invitrogen), and bacmid DNA was generated by standard methods. […] Three days post infection, the supernatant was adjusted to a final concentration of 50 mM Tris pH 8.0, 5 mM CaCl2, and 1 mM NiSO4 and stirred for 10 min. at room temperature. […] Purified ATX was concentrated to approximately 10 mg mL^−1, and dialyzed into the appropriate assay buffer.
Fluorescence was measured (λex=485 nm, λem=520 nm) on a SpectraMax Gemini XPS at 37° C. under buffer conditions similar to the PDE assays but lacking BSA. […] The spontaneous reaction rates were subtracted from the enzyme catalyzed rates.
The steady-state rates (v) of product formation were obtained by fitting the time courses of absorbance or fluorescence change to linear functions. […] FS-3 hydrolysis product formation was quantitated in arbitrary fluorescence units.
The Michaelis constants (KM) and the catalytic turnover rate constants (kcat) were obtained by fitting the [substrate]-dependence of v to a rectangular hyperbola in the form of the Briggs-Haldane equation: […]
in which [S] is [pNP-TMP] or [FS-3]. Inhibitors were treated as reversible inhibitors and analyzed according to the general steady-state linear enzyme inhibitor scheme:
in which E is ATX, S is pNP-TMP or FS-3 substrate, P are the hydrolysis products, and K1 is the dissociation equilibrium constant for inhibitor binding. The values of α and K1 were obtained by fitting the steady-state rates of product formation (v) to the general inhibition equation: […]
in which [I] is the inhibitor concentration, kcat is the maximum catalytic turnover rate, and KS is the Michaelis constant of the substrate obtained in the absence of inhibitor.
The type of inhibition (competitive, noncompetitive, or uncompetitive) depends on the value of α.
The type of inhibition was assigned if the difference between the r^2 values of the fits to the general inhibition equation (Eq 2) and the specific inhibition (i.e. competitive, noncompetitive or uncompetitive) equations was less than 0.01.

[2] = tested on: human melanoma cell line (A2058); assay: Boyden chamber cell migration assay, melanoma cells; type: cell-based; settings: A2058, 50 nM ATX, 4 hours
Description: All cell media was supplemented with 10% (v/v) fetal calf serum (FCS) (Gibco) and 1% (v/v) L-glutamine (Gibco) and grown at 37° C. in a humidified atmosphere containing 5% CO2.
The assay chambers are divided by a gelatin-coated membrane with […] pores (NeuroProbe). […] The chambers were then incubated at 37° C. for 4 hours, after which the filters were removed, fixed in 100% methanol, stained with a DiffQuick solution, and mounted onto glass slides. Non-migrating cells were removed from the membrane by scraping the top surface. The cells were quantitated by counting the cell number per high powered field in the various wells. Treatments were compared using a chi squared test.

[3] = tested on: Human breast adenocarcinoma cells, MDA-MB-231; assay: Matrigel cell invasion assay, breast cancer cells; type: cell-based; settings: 50 nM ATX
Description: (§1) Cell culture: Human melanoma cells, A2058 (ATCC), were grown in Dulbecco's Modified Eagle's Medium (DMEM) (Gibco), MeI 28 (ATCC), YUSAC2 (Yale University) and MeI-888 (Yale University) were grown in OptiMEM media (Gibco), and HTB 63 (ATCC) were grown in McKoy's 5a medium (ATCC). Human breast adenocarcinoma cells, MDA-MB-231(ATCC) and ovarian carcinoma cells R182 (Gil Mor, Yale University) were grown in RPMI-1640 (Gibco). All cell media was supplemented with 10% (v/v) fetal calf serum (FCS) (Gibco) and 1% (v/v) L-glutamine (Gibco) and grown at 37° C. in a humidified atmosphere containing 5% CO2.
(§2) Cell invasion assays: Matrigel matrix (1 mg/ml, Becton Dickenson) was added to […] gelatin-coated membranes placed in cell culture inserts (BD Falcon) and allowed to set for 24 hours at room temperature. The inserts were placed into companion 24 well plates (BD Falcon), and chemo-attractants (ATX ±inhibitors) and/or controls were added to the bottom of the wells. Cells (1×10^6) were added to the inserts and incubated for 3 hours at 37° C. Following incubation, the inserts were removed, fixed in 100% methanol, stained with DiffQuick solution, and mounted on glass slides. Non-invading cells were removed by scraping away the matrigel, and migrating cells were quantitated by counting cell number per high-powered field.

[4] = tested on: ovarian carcinoma cells R182; assay: Matrigel cell invasion assay, primary ovarian cancer cells; type: cell-based, human; settings: 50 nM ATX
Description: as §1, §2

SMILES	type of inhibition of ATX lysoPLD activity [1]	Ki [1] [µM]	inhibition of ATX-induced stimulation of melanoma cell motility [2]	reduction of ATX-stimulated breast cancer cell invasion [3]	reduction of ATX-stimulated ovarian cancer cell invasion [4]
Oc1c(Cl)cc(Cl)cc1Sc1cc(Cl)cc(Cl)c1O [Bithionol]	competitively inhibits	66	inhibited in a dose-dependent manner	could be reduced	could be reduced
O=[As](O)(O)c1ccc(Cc2ccc([As](=O)(O)O)cc2)cc1 [NSC 48300]	competitively inhibits	0.24	inhibited in a dose-dependent manner	could be reduced	could be reduced
